# Laboratory results: article PMC10545732, “Structure-based drug discovery of a corticotropin-releasing hormone receptor 1 antagonist using an X-ray free-electron laser” (Experimental & Molecular Medicine, 2023)
# pIC50, pKi: −log10 of the molar value. Like-named read-outs stand apart in the source and are kept apart here.
# Key:
# [1] = PK studies in rats; assay type: in vivo, SD rats; conditions: male, Sprague-Dawley, rat, plasma, SD rats, n = 3
# Method: CRF1R antagonist PKs were studied in naïve male SD rats following a single i.v. bolus injection or p.o. gavage. The i.v. injections used Antalarmin, BMK-C203, or BMK-C205 at doses of 5 mg/kg and BMK-I-152 at a dose of 1 mg/kg. The antagonist’s doses in the p.o. injection was 10 mg/kg. Three male SD rats weighing between 220 and 260 g were used to evaluate CRF1R antagonist PKs. The vehicle used for all dose groups was […]: TPGS: PEG400 (70%:20%:10%). Blood samples were collected from all treatment groups at 0 h (predose), 0.083, 0.25, 0.5, 1, 2, 4, 6, 8, and 24 h after dosing. Antalarmin, BMK-I-152, BMK-C203, and BMK-C205 concentrations in the plasma samples were determined via LC‒MS/MS (LLOQ was 1 ng/mL for CRF1R antagonists). PK parameter estimates were determined using the serial time-course profiles for plasma concentrations of three male rats per group via noncompartmental analysis using commercially available software (Phoenix WinNonlin, version 8.1, Pharsight Corporation, Mountain View, CA).
# [2] = test system: C57BL/6J mice; experiment: Tail suspension test (TST); assay type: in vivo; conditions: 30 mg/kg orally for 3 days, test 2 h after third dose, last 4 min of 6 min
# Method: (§1) C57BL/6J mice (male, 9–10 weeks old) were used for the behavioral tests. All mice were maintained under a 12:12-h light–dark cycle (lights on at 7:00 A.M.) with access to food and water ad libitum. Animal care and handling were performed according to guidelines by the Institutional Animal Care and Use Committee of Yonsei University (Seoul, Korea). Antalarmin, BMK-C203, and BMK-C205 were dissolved in peceol: TPGS: PEG400 (vehicle) (70%:20%:10%, respectively) and administered orally at a dose of 30 mg/kg for 3 days at 24-h intervals. All behavioral tests were conducted 2 h after the third drug was administered during light periods of the circadian cycle. TSTs were performed to verify the effect of CRF1R antagonists on depressive-like behavior. Each mouse was suspended by its tail on a bar 30 cm above the ground for 6 min using adhesive tape. Their movements were recorded by a camera and analyzed using the same parameters via EthoVision XT 8.5 software (Noldus Technologies). Immobility times during the last 4 min of the task were measured. Each mouse was placed in an open field (40 cm × 40 cm × 40 cm chamber) for 1 h to conduct an open field test (OFT) and test locomotion. Their locomotion was recorded and analyzed using EthoVision XT 8.5.
# [3] = test system: C57BL/6J mice; experiment: Open field test (OFT); assay type: in vivo; conditions: 30 mg/kg orally for 3 days, 1 h open field
# Method: as §1
# [4] = test system: CORT serum levels; experiment: Serum CORT level after TST (LC-MS); assay type: in vivo, mice; conditions: 30 mg/kg orally for 3 days, immediately after TST
# Method: (§2) The mice were anesthetized via intraperitoneal injections of 2,2,2-tribromoethanol (300 mg/kg, Sigma-Aldrich) immediately after the TST and before blood from the heart was sampled. Blood samples were collected in plastic tubes and incubated at room temperature for at least 2 h. The sera were extracted after centrifugation at 13,000×g for 10 min at 4 °C. CORT levels were determined via LC‒MS analysis. Serum (10 µL) was mixed with 20 μL of an internal standard solution (d4-cortisol) to prepare the samples. Subsequently, 100 μL of acetonitrile was added, and the mixture was centrifuged at 16,000×g for 10 min for protein precipitation. The supernatants (60 μL) were transferred into an autosampler vial, and 30 μL of water was added for efficient separation via high-performance liquid chromatography (HPLC). LC‒MS was performed with a triple quadrupole mass spectrometer coupled with HPLC using a C18 reversed-phase column. CORT levels were determined using a calibration curve constructed using CORT-spiked mouse serum. Serum samples (20 μL) were analyzed using a commercially available ELISA kit for ACTH (ab263880, Abcam) to measure ACTH serum levels.
# [5] = test system: ACTH serum levels; experiment: Serum ACTH level after TST (ELISA); assay type: in vivo, mice; conditions: 30 mg/kg orally for 3 days, immediately after TST
# Method: as §2
# [6] = target: T1, CRF1R (Homo sapiens, UniProt P34998); experiment: Calcium mobilization assay (hCRF1R Ca2+ antagonism); assay type: cell-based; conditions: for IC50 (in words): reason for not selecting
# T1 construct: HEK-Gα15 cells (Eurofins Scientific) transfected with CRF1R; host or cells: HEK-Gα15 cells
# T1 sequence (P34998 24-415): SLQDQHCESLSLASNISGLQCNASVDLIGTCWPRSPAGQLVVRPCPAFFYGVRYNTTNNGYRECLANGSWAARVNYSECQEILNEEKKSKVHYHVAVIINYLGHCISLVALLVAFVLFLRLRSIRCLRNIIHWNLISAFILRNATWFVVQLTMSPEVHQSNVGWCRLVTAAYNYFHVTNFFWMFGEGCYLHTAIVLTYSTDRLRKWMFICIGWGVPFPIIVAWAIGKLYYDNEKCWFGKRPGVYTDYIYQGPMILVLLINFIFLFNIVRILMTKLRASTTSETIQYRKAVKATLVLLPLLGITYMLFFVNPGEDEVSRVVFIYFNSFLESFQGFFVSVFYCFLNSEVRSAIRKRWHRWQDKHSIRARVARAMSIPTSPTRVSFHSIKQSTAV
# Method: HEK-Gα15 cells (Eurofins Scientific) transfected with CRF1R were plated in 96-well plates at a density of 50,000 cells/100 μL per well and incubated overnight. The next day, the cells were incubated with a Calcium 6 reagent (Molecular Devices) containing 0.5 mM probenecid (Sigma) at 37 °C for 1 h before adding compounds or dimethyl sulfoxide DMSO (positive and negative control; final concentration 0.1%). After incubation at 37 °C for 1 h, 50 μL urocortin (final concentration 2 nM) (Tocris) was dispensed into the well with FLIPR-tetra (Molecular Devices). […] Intracellular calcium changes were recorded at excitation and emission wavelengths of 470–495 and 515–575 nm, respectively. Relative fluorescence units (RFU) were calculated as the fluorescence signal maximum minus the signal minimum for 30 s after addition. The graphs and IC50 concentrations were calculated using GraphPad Prism 6 software.
# [7] = target: CYP3A4 (Homo sapiens, UniProt P08684); experiment: CYP inhibition assay CYP3A4 (midazolam 1'-hydroxylase); conditions: 10 μM, human liver microsomes, n = 3
# [8] = target: CYP2D6 (Homo sapiens, UniProt P10635); experiment: CYP inhibition assay CYP2D6 (dextromethorphan O-demethylase); conditions: 10 μM, human liver microsomes, n = 3
# [9] = Microsomal stability assay, human liver microsomes; assay type: in vitro ADME
# Method: LC‒MS/MS was performed on a TSQ Vantage (Thermo, USA) coupled with a Nexera XR LC system (Shimadzu, Japan)[32]. The separation was performed on a Kinetex C18 column (2.1 × 100 mm, 2.6 µm, Phenomenex, USA) using a mobile phase of 0.1% formic acid and acetonitrile containing 0.1% formic acid. A gradient program was used for elution at a flow rate of 0.3 mL/min. The data were acquired using multiple-reaction monitoring (MRM) in positive mode.
# [10] = target: CRF1R; set-up: method as in PMID 21308801; conditions: cited from earlier work
# [11] = Microsomal stability assay, rat liver microsomes; assay type: in vitro ADME; conditions: 1 μM, n = 3
# Method: The incubation mixtures consisted of 0.5 mg/mL human (Corning, #452117) and rat liver microsomes (Corning, #452701), 0.1 M phosphate buffer (pH 7.4), NADPH regeneration system, and substrates (CRF1R antagonist compounds, 1 µM) in a total volume of 100 μL. […] LC‒MS/MS was performed on a TSQ Vantage (Thermo, USA) coupled with a Nexera XR LC system (Shimadzu, Japan)[32]. The separation was performed on a Kinetex C18 column (2.1 × 100 mm, 2.6 µm, Phenomenex, USA) using a mobile phase of 0.1% formic acid and acetonitrile containing 0.1% formic acid. A gradient program was used for elution at a flow rate of 0.3 mL/min. The data were acquired using multiple-reaction monitoring (MRM) in positive mode. Detection of the ions was performed by monitoring the m/z transition of 494.1 → 336.1 for BMK-I-152, 598.1 → 233.2 for BMK-C203, and 488.1 → 434.1 for BMK-C205.
# [12] = set-up: method as in PMID 21308801; conditions: liver microsomal stability assay; cited from earlier work
# [13] = target: T2, CYP2C19 (Homo sapiens, UniProt P33261); experiment: CYP inhibition assay CYP2C19 (S-mephenytoin 4-hydroxylase); assay type: in vitro ADME
# T2 construct: 0.25 mg/mL human liver microsomes; from tissue; host or cells: human liver microsomes
# [14] = target: T3, CYP2C9 (Homo sapiens, UniProt P11712); experiment: CYP inhibition assay CYP2C9 (diclofenac 4-hydroxylase); assay type: in vitro ADME
# T3 construct: 0.25 mg/mL human liver microsomes; from tissue; host or cells: human liver microsomes
# [15] = target: T4, CYP1A2 (Homo sapiens, UniProt P05177); experiment: CYP inhibition assay CYP1A2 (phenacetin O-demethylase); assay type: in vitro ADME
# T4 construct: 0.25 mg/mL human liver microsomes; from tissue; host or cells: human liver microsomes
# T4 sequence (P05177 1-516): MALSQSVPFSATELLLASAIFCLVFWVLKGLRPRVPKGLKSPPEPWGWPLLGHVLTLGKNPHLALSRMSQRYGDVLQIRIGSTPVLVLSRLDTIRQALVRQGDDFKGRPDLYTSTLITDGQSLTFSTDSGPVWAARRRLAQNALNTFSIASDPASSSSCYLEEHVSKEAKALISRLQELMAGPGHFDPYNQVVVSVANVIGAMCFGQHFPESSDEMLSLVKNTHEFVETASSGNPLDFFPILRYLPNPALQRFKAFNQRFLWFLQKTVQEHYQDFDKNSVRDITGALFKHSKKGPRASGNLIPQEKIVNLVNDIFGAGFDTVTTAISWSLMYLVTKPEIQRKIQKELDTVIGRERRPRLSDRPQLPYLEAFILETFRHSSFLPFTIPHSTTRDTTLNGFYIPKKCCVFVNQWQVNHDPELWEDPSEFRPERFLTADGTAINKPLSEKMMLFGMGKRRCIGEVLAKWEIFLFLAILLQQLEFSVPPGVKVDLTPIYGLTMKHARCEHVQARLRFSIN
# [16] = 10 μM, human liver microsomes, n = 3
# T2 sequence (P33261 whole entry): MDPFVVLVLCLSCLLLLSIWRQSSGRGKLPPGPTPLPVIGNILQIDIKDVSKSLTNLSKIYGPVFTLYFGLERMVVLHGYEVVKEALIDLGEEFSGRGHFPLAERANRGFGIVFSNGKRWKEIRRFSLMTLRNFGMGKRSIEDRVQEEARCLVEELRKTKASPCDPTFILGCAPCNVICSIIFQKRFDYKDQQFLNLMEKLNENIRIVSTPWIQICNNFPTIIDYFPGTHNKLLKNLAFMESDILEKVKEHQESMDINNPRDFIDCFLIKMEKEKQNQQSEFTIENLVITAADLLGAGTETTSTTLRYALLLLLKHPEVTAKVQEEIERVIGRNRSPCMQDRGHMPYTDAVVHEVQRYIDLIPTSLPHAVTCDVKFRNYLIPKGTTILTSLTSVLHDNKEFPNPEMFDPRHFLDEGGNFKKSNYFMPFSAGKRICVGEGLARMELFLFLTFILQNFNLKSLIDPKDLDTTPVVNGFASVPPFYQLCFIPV
# T3 sequence (P11712 whole entry): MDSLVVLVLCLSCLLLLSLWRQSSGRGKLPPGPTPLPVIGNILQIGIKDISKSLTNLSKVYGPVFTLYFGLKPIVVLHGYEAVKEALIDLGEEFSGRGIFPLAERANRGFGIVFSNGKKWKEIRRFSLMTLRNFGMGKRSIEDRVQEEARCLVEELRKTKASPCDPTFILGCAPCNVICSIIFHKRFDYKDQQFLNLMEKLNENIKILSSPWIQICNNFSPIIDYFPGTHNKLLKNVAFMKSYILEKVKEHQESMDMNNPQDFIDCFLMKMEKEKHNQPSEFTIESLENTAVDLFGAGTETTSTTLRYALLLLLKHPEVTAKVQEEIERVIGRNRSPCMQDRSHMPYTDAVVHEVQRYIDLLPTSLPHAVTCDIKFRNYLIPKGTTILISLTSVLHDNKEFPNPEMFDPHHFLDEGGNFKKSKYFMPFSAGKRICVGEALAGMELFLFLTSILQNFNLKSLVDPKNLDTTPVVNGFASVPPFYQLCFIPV
# Sequence of CYP3A4 (P08684 whole entry): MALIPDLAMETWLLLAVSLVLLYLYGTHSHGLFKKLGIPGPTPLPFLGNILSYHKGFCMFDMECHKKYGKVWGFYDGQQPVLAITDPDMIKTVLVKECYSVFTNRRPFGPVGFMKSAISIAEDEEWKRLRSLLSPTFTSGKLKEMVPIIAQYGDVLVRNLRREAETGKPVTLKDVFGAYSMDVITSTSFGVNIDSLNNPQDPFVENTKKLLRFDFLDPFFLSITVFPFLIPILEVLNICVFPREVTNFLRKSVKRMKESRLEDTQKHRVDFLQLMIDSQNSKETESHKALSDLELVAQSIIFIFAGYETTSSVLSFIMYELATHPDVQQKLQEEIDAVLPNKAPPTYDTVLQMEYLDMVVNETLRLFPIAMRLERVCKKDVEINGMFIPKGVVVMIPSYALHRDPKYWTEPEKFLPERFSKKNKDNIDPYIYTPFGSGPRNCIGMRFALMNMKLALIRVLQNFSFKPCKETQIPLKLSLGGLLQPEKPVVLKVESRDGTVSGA
# Sequence of CYP2D6 (P10635 whole entry): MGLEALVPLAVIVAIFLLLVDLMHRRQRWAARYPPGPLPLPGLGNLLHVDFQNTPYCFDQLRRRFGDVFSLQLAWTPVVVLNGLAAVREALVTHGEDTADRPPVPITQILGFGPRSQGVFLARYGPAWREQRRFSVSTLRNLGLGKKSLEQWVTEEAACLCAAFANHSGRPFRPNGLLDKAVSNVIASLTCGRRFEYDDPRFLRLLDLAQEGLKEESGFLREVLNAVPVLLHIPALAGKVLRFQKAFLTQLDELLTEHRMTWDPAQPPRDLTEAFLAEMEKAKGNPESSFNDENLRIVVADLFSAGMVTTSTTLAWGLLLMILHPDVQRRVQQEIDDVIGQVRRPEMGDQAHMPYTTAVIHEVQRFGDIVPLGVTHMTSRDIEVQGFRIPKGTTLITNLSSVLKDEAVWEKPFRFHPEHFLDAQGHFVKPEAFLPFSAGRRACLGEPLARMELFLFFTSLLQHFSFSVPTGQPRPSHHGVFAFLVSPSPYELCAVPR
structure (smiles),measurement,setting,value
"CCCCN(CC)c1nc(C)nc2c1c(C)c(C)n2-c1c(C)cc(C)cc1C [Antalarmin, reference compound]",AUC(0-t),"[1]; iv, I.V, 5 mg/kg",4.37 µg·h/mL
same,half-life,"[1]; iv, I.V, 5 mg/kg",3.09 h
same,AUC(0-t),"[1]; po, P.O, 10 mg/kg",0.66 µg·h/mL
same,Cmax,"[1]; po, P.O, 10 mg/kg",0.146 µg/mL
same,Tmax,"[1]; po, P.O, 10 mg/kg",4 h
same,bioavailability,"[1]; po, P.O, 10 mg/kg",7.6%
same,half-life,"[1]; po, P.O, 10 mg/kg",4.08 h
same,TST immobility time versus vehicle,[2],no significant difference
same,OFT locomotion / overall moving distance,[3],did not differ among groups
same,serum CORT level versus vehicle,[4],no significant difference
same,serum ACTH level versus vehicle,[5],no significant difference
CCCCN(CCCC(F)(F)F)c1nc(C)nc2c(-c3c(OC)cc(Br)cc3OC)c(C)nn12 [BMK-C207],IC50 (in words),[6],high IC50 values
COc1cc(Br)cc(OC)c1-c1c(C)nn2c(N(CCCC(F)(F)F)CC3CC3)nc(C)nc12 [BMK-C209],IC50 (in words),[6],high IC50 values
CCCN(CCCC(F)(F)F)c1nc(C)nc2c(-c3c(OC)cc(Br)cc3OC)c(C)nn12 [BMK-C210],IC50 (in words),[6],high IC50 values
COCCN(CCOC)c1nc(C)nc2c(-c3c(OC)cc(Br)cc3OC)c(C)nn12 [BMK-I-152],"CYP3A4, percentage of control activity",[7],99.8 ± 3.0 percentage of control activity
same,"CYP2D6, percentage of control activity",[8],> 100 ± 1.6 percentage of control activity
same,AUC(0-t),"[1]; iv, I.V, 1 mg/kg",0.913 µg·h/mL
same,half-life,"[1]; iv, I.V, 1 mg/kg",13.5 h
same,AUC(0-t),"[1]; po, P.O, 10 mg/kg",3.08 µg·h/mL
same,Cmax,"[1]; po, P.O, 10 mg/kg",0.267 µg/mL
same,Tmax,"[1]; po, P.O, 10 mg/kg",6.67 h
same,bioavailability,"[1]; po, P.O, 10 mg/kg",33.8%
same,half-life,"[1]; po, P.O, 10 mg/kg",5.66 h
same,"Liver microsomal stability, Human (percentage remaining after 30 min)","[9]; 1 μM, n = 3",27.7 ± 3.87%
same,liver microsomal stability (remaining),"[9]; in almost all species (human and rat liver microsomes), 30 min",below 35%
same,pKi,[10],9.46
same,"Liver microsomal stability, Rat (percentage remaining after 30 min)",[11],35.3 ± 5.85%
same,half-life,[12],< 0.5 h
same,"CYP2C19, percentage of control activity",[13]; [16],83.2 ± 5.0 percentage of control activity
same,pIC50,"[6]; HEK-Gα15 cells transfected with CRF1R, urocortin 2 nM, n = 3",7.59
same,IC50 fold lower than that of Antalarmin,[6]; hCRF1R Ca2+ antagonism assay,~12 fold
same,IC50 fold lower than that of CP376395,[6]; hCRF1R Ca2+ antagonism assay,~ 55 fold
same,"CYP2C9, percentage of control activity",[14]; [16],89.9 ± 7.0 percentage of control activity
same,"CYP1A2, percentage of control activity",[15]; [16],98.8 ± 1.8 percentage of control activity
"CC(=O)N1CCN(c2ccc(OCC3COC(Cn4ccnc4)(c4ccc(Cl)cc4Cl)O3)cc2)CC1 (stereo not shown) [Ketoconazole, reference compound]","CYP2C19, percentage of control activity",[13]; reference chemical at 0.1 μM,> 100 ± 12.9 percentage of control activity
same,"CYP2C9, percentage of control activity",[14]; reference chemical at 0.1 μM,94.0 ± 9.2 percentage of control activity
same,"CYP1A2, percentage of control activity",[15]; reference chemical at 0.1 μM,94.3 ± 5.3 percentage of control activity
